Measurements published in PMC5601486, “Identification of 4-phenylquinolin-2(1H)-one as a specific allosteric inhibitor of Akt” (Scientific Reports, 2017).

How the values were obtained:
[1] = test system: OSR1; assay: KINOMEscan; conditions: 50000 nM
Method: KINOMEscan™ selectivity screen
(§1) Briefly, Kinase-tagged T7 phage strains were grown in parallel in an E. coli host derived from the BL21 strain. E. coli were grown to log-phase and infected with T7 phage from a frozen stock and incubated with shaking at 32°C until lysis (90-150 minutes). The kinases were produced in HEK-293 cells and subsequently tagged with DNA for qPCR detection. Streptavidin-coated magnetic beads were treated with biotinylated small molecule ligands to generate affinity resins for kinase
(§2) inhibitor or DMSO control was performed in polypropylene 384-well plates for 1 hr at room temperature. After wash with PBS buffer containing 0.05% Tween 20, the beads were incubated in elution buffer (PBS containing 0.05 % Tween 20 and 0.5 μM non-biotinylated affinity ligand) for 30 minutes at room temperature. The kinase concentration in the eluates was measured by qPCR.

[2] = test system: FLT3; assay: KINOMEscan; conditions: 50000 nM
Method: KINOMEscan™ selectivity screen
(§3) The assay was perfor med at DiscoveRx Corporation according the methods published previously5. Briefly, Kinase-tagged T7 phage strains were grown in parallel in an E. coli host derived from the BL21 strain. E. coli were grown to log-phase and infected with T7 phage from a frozen stock and incubated with shaking at 32°C until lysis (90-150 minutes). The kinases were produced in HEK-293 cells and subsequently tagged with DNA for qPCR detection. Streptavidin-coated magnetic beads were treated with biotinylated small molecule ligands to generate affinity resins for kinase
as §2

[3] = test system: MYLK4; assay: KINOMEscan; conditions: 50000 nM
Method: KINOMEscan™ selectivity screen
as §3, §2

[4] = test system: SLK; assay: KINOMEscan; conditions: 50000 nM
Method: KINOMEscan™ selectivity screen
as §3, §2

[5] = test system: CHEK1; assay: KINOMEscan; conditions: 50000 nM
Method: KINOMEscan™ selectivity screen
as §3, §2

[6] = test system: cleaved caspase 3; assay: Western blot of cleaved caspase 3; type: cell-based, Mouse; conditions: Neuro 2A cells
Method: Neuro 2A cells were seeded in 12-well plates in DMEM containing 5% FBS for 24 hr.
After overnight serum starvation (in 0% FBS DMEM), cells were incubated for 30 min at 37 °C with G7 or LY294002 or Torin 1 (Sigma Aldrich) at various concentrations, or DMSO control. IGF-1 was added to each well at a final concentration of 100 ng/mL. After 30-min incubation cells were washed with cold PBS and lysed with 50 µL lysis buffer containing 1% Triton X-100 and protease/phosphatase inhibitors (Cell Signaling Technology) or RIPA buffer (Santa Cruz Biotech). Samples were electrophoresed in 4–12% Bis-Tris gels (Life Technologies) at 150 V using MOPS SDS running buffer. Proteins were transferred electrophoretically to a PVDF or nitrocellulose membrane. For detection of cleaved […]
caspase 3 a Trans-Blot Turbo Transfer System (Bio-Rad, 25 V for 25 min) with PVDF membrane were used. […]
anti- GAPDH (14C10) antibody (#2118) (all antibodies were from Cell Signaling Technology unless indicated, 1:1000 dilution was used) at 4°C overnight, washed three times with TBS-T, then incubated with peroxidase-conjugated secondary antibody (Sigma-Aldrich) for 1 hr at room temperature. […] Band intensity was quantitated using Kodak 1D imaging analysis software. […]

[7] = test system: NIK; assay: KINOMEscan; conditions: 50000 nM
Method: KINOMEscan™ selectivity screen
(§4) Briefly, Kinase-tagged T7 phage strains were grown in parallel in an E. coli host derived from the BL21 strain. E. coli were grown to log-phase and infected with T7 phage from a frozen stock and incubated with shaking at 32°C until lysis (90-150 minutes). The kinases were produced in HEK-293 cells and subsequently tagged with DNA for qPCR detection.
(§5) After wash with PBS buffer containing 0.05% Tween 20, the beads were incubated in elution buffer (PBS containing 0.05 % Tween 20 and 0.5 μM non-biotinylated affinity ligand) for 30 minutes at room temperature. The kinase concentration in the eluates was measured by qPCR.

[8] = test system: LRRK2(G2019S); assay: KINOMEscan; conditions: 50000 nM
Method: KINOMEscan™ selectivity screen
as §3, §2

[9] = test system: CDK4-cyclinD3; assay: KINOMEscan; conditions: 50000 nM
Method: KINOMEscan™ selectivity screen
as §1, §2

[10] = test system: ULK2; assay: KINOMEscan; conditions: 50000 nM
Method: KINOMEscan™ selectivity screen
as §3, §2

[11] = test system: PRKD1; assay: KINOMEscan; conditions: 50000 nM
Method: KINOMEscan™ selectivity screen
as §3, §2

[12] = test system: T1, CDC2L5; assay: KINOMEscan; type: binding, human; conditions: 50000 nM
T1 construct: purchased DiscoveRx KINOMEscan

[13] = test system: CAMK1D; assay: KINOMEscan; conditions: 50000 nM
Method: as §1, §2

[14] = test system: BTK; assay: KINOMEscan; conditions: 50000 nM
Method: KINOMEscan™ selectivity screen
as §3, §2

[15] = test system: PIK3CB; assay: KINOMEscan; conditions: 50000 nM
Method: KINOMEscan™ selectivity screen
as §1, §2

[16] = test system: PKAC-alpha; assay: KINOMEscan; conditions: 50000 nM
Method: KINOMEscan™ selectivity screen
as §1, §2

[17] = test system: ACVR2B; assay: KINOMEscan; conditions: 50000 nM
Method: KINOMEscan™ selectivity screen
as §3, §2

[18] = test system: CSNK1E; assay: KINOMEscan; conditions: 50000 nM
Method: KINOMEscan™ selectivity screen
as §3, §2

[19] = test system: FGFR3; assay: KINOMEscan; conditions: 50000 nM
Method: KINOMEscan™ selectivity screen
as §3, §2

[20] = test system: PRKD2; assay: KINOMEscan; conditions: 50000 nM
Method: KINOMEscan™ selectivity screen
as §3, §2

[21] = test system: ABL1(F317I)-nonphosphorylated; assay: KINOMEscan; conditions: 50000 nM
Method: KINOMEscan™ selectivity screen
as §3, §2

[22] = test system: PAK4; assay: KINOMEscan; conditions: 50000 nM
Method: as §1, §2

[23] = test system: MARK4; assay: KINOMEscan; conditions: 50000 nM
Method: KINOMEscan™ selectivity screen
as §3, §2

[24] = test system: LCK; assay: KINOMEscan; conditions: 50000 nM
Method: KINOMEscan™ selectivity screen
as §3, §2

[25] = test system: MAP4K2; assay: KINOMEscan; conditions: 50000 nM
Method: KINOMEscan™ selectivity screen
as §3, §2

[26] = test system: ZAP70; assay: KINOMEscan; conditions: 50000 nM
Method: KINOMEscan™ selectivity screen
as §1, §2

[27] = test system: FLT3(D835Y); assay: KINOMEscan; conditions: 50000 nM
Method: KINOMEscan™ selectivity screen
as §3, §2

[28] = test system: CDK9; assay: KINOMEscan; conditions: 50000 nM
Method: KINOMEscan™ selectivity screen
as §1, §2

[29] = test system: ASK2; assay: KINOMEscan; conditions: 50000 nM
Method: KINOMEscan™ selectivity screen
as §1, §2

[30] = test system: YANK1; assay: KINOMEscan; conditions: 50000 nM
Method: KINOMEscan™ selectivity screen
as §1, §2

[31] = test system: CTK; assay: KINOMEscan; conditions: 50000 nM
Method: KINOMEscan™ selectivity screen
as §1, §2

[32] = test system: CDKL1; assay: KINOMEscan; conditions: 50000 nM
Method: KINOMEscan™ selectivity screen
as §1, §2

[33] = test system: PYK2; assay: KINOMEscan; conditions: 50000 nM
Method: KINOMEscan™ selectivity screen
as §4, §5

[34] = test system: FLT3(D835V); assay: KINOMEscan; conditions: 50000 nM
Method: KINOMEscan™ selectivity screen
as §3, §2

[35] = test system: ALK; assay: KINOMEscan; conditions: 50000 nM
Method: KINOMEscan™ selectivity screen
as §3, §2

[36] = test system: ROCK2; assay: KINOMEscan; conditions: 50000 nM
Method: KINOMEscan™ selectivity screen
as §3, §2

[37] = test system: SNARK; assay: KINOMEscan; conditions: 50000 nM
Method: KINOMEscan™ selectivity screen
as §3, §2

[38] = test system: BRK; assay: KINOMEscan; conditions: 50000 nM
Method: KINOMEscan™ selectivity screen
as §3, §2

[39] = test system: ANKK1; assay: KINOMEscan; conditions: 50000 nM
Method: KINOMEscan™ selectivity screen
as §3, §2

With `Oc1cc(-c2ccccc2)c2ccccc2n1` [G7, 4-phenylquinolin-2(1H)-one] as the compound, how does the “Percent Control” value [1] read?
The value was 87%.

And the “Percent Control” value [2]?
The value was 13%.

What about the “Percent Control” value [3] of the same compound?
The value was 43%.

What about the “Percent Control” value [4] of the same compound?
The value was 89%.

And the “Percent Control” value [5]?
The value was 85%.

And the “levels of the cleaved caspase 3” value [6]?
The value was “elevated levels”.

And the “Percent Control” value [7]?
Its value is 93%.

And the “Percent Control” value [8]?
Its value is 63%.

What about the “Percent Control” value [9] of the same compound?
Its value is 71%.

And the “Percent Control” value [10]?
The value was 76%.

And the “Percent Control” value [11]?
Its value is 96%.

And the “Percent Control” value [12]?
The value was 87%.

And the “Percent Control” value [13]?
The value was 87%.

What about the “Percent Control” value [14] of the same compound?
The value was 50%.

What about the “Percent Control” value [15] of the same compound?
Its value is 69%.

And the “Percent Control” value [16]?
Its value is 87%.

What about the “Percent Control” value [17] of the same compound?
The value was 100%.

What about the “Percent Control” value [18] of the same compound?
The value was 15%.

What about the “Percent Control” value [19] of the same compound?
The value was 83%.

And the “Percent Control” value [20]?
The value was 82%.

And the “Percent Control” value [21]?
The value was 71%.

What about the “Percent Control” value [22] of the same compound?
Its value is 84%.

What about the “Percent Control” value [23] of the same compound?
Its value is 88%.

And the “Percent Control” value [24]?
The value was 80%.

And the “Percent Control” value [25]?
The value was 100%.

And the “Percent Control” value [26]?
The value was 100%.

What about the “Percent Control” value [27] of the same compound?
Its value is 33%.

What about the “Percent Control” value [28] of the same compound?
Its value is 99%.

And the “Percent Control” value [29]?
The value was 78%.

And the “Percent Control” value [30]?
Its value is 100%.

What about the “Percent Control” value [31] of the same compound?
The value was 74%.

And the “Percent Control” value [32]?
The value was 100%.

What about the “Percent Control” value [33] of the same compound?
Its value is 93%.

And the “Percent Control” value [34]?
The value was 7.6%.

What about the “Percent Control” value [35] of the same compound?
The value was 95%.

And the “Percent Control” value [36]?
The value was 81%.

And the “Percent Control” value [37]?
The value was 45%.

What about the “Percent Control” value [38] of the same compound?
Its value is 96%.

What about the “Percent Control” value [39] of the same compound?
Its value is 73%.
